In patent publication US8916702B2 (priority 2012, dated 2014):
Where two headings read alike, the source gives them in different places.

Tested on: HCV pseudoparticles (genotype 1a HCV E1 and E2 envelope, H77C isolate)
Test: microbe, parasite or virus in culture
Format: cell-based
Details: Hepatitis C virus
[1] = Huh-7, 48 h, read-out: Activity (EC50 class), HCV pseudoparticle infection of Huh7 cells, luciferase 2 days after infection, EC50 expressed as class A/B
[2] = Huh-7, 48 h, read-out: Activity (EC50 class), HCV pseudoparticles, Huh7 cells, luciferase 2 days after infection, average of duplicates
[3] = Huh-7, read-out: Activity (EC50 class), HCV pseudoparticles (genotype 1a, H77C) in Huh7 cells, EC50 expressed as class A/B
[4] = Huh-7, 48 h, HCV pseudoparticle infection of Huh7 cells, luciferase 2 days after infection, average of duplicates

COC(=O)C(NC(=O)c1ccc(Nc2nc(NC3(c4ccc(Cl)cc4)CC3)nc(OCC(F)(F)F)n2)cc1)C1CCCN(C(=O)C(N)=O)C1 (stereo not drawn) [Compound 1017, methyl 2-(1-(2-amino-2-oxoacetyl)piperidin-3-yl)-2-(4-(4-(1-(4-chlorophenyl)cyclopropylamino)-6-(2,2,2-trifluoroethoxy)-1,3,5-triazin-2-ylamino)benzamido)acetate]
EC50 [1]: 0.01 to 10 nM

COC(=O)[C@H](CNC(=O)C(=O)Nc1cccc(-c2c[nH]cn2)c1)NC(=O)c1ccc(Nc2nc(NC3(c4ccc(Cl)cc4)CC3)nc(OCC(F)(F)F)n2)cc1 [Compound 3732]
EC50 [2]: 0.01 to 10 nM

COc1ccc(NC(=O)C(=O)NC[C@H](NC(=O)c2ccc(Nc3nc(NC4(c5ccc(Cl)cc5)CC4)nc(OCC(F)(F)F)n3)cc2)C(=O)O)cn1 [Compound 1349]
EC50 [1]: 0.01 to 10 nM

COC(=O)[C@H](CNC(=O)C(=O)Nc1ccc(N2CCOCC2)cc1)NC(=O)c1ccc(Nc2nc(NC3(c4ccc(Cl)cc4)CC3)nc(OCC(F)(F)F)n2)cc1 [Compound 3080]
EC50 [3]: 0.01 to 10 nM

COC(=O)[C@H](CNC(=O)C(=O)NC(C)(C)Cc1ccc(F)cc1)NC(=O)c1ccc(Nc2nc(NC3(c4ccc(Cl)cc4)CC3)nc(OCC(F)(F)F)n2)cc1 [Compound 1296]
EC50 [1]: 0.01 to 10 nM

COC(=O)[C@H](CNC(=O)C(=O)NCc1ccc(OC)c(OC)c1)NC(=O)c1ccc(Nc2nc(NC3(c4ccc(Cl)cc4)CC3)nc(OCC(F)(F)F)n2)cc1 [Compound 1152]
EC50 [1]: 0.01 to 10 nM

COC(=O)[C@H](CNC(=O)C(=O)NCC1CC1)NC(=O)c1ccc(Nc2nc(NC3(c4ccc(Cl)cc4)CC3)nc(OCC(F)(F)F)n2)cc1 [Compound 1461]
EC50 [1]: 0.01 to 10 nM

CC(C)(CNC(=O)C(=O)Nc1ccc(-c2cccc(Cl)c2)cc1)CNC(=O)c1ccc(Nc2nc(NC3(c4ccc(Cl)cc4)CC3)nc(OCC(F)(F)F)n2)cc1 [Compound 1588]
EC50 [1]: 0.01 to 10 nM

O=C(NCc1cccc(F)c1)C(=O)NC[C@H](NC(=O)c1ccc(Nc2nc(NC3(c4ccc(Cl)cc4)CC3)nc(OCC(F)(F)F)n2)cc1)C(=O)O [Compound 1163]
EC50 [1]: 0.01 to 10 nM

COC(=O)[C@H](CNC(=O)C(=O)Nc1cccc(C(=O)c2ccccc2)c1)NC(=O)c1ccc(Nc2nc(NC3(c4ccc(Cl)cc4)CC3)nc(OCC(F)(F)F)n2)cc1 [Compound 3692]
EC50 [2]: 0.01 to 10 nM

Cn1ccc(NC(=O)C(=O)NCC[C@H](NC(=O)c2ccc(Nc3nc(NC4(c5ccc(Cl)cc5)CC4)nc(OCC(F)(F)F)n3)cc2)C(=O)O)n1 [Compound 1263]
EC50 [1]: 0.01 to 10 nM

CC(C)(CNC(=O)C(=O)Nc1ccc(F)c(Cl)c1)CNC(=O)c1ccc(Nc2nc(NC3(c4ccc(Cl)cc4)CC3)nc(OCC(F)(F)F)n2)cc1 [Compound 3059]
EC50 [3]: 0.01 to 10 nM

Cc1ccc(NC(=O)C(=O)N(C)CCCN(C)C(=O)c2ccc(Nc3nc(NC4(c5ccc(Cl)cc5)CC4)nc(OCC(F)(F)F)n3)cc2)cc1Cl [Compound 3434]
EC50 [3]: 0.01 to 10 nM

CC(C)(C)OC(=O)NC1(CNC(=O)C(=O)NCC[C@H](NC(=O)c2ccc(Nc3nc(NC4(c5ccc(Cl)cc5)CC4)nc(OCC(F)(F)F)n3)cc2)C(=O)O)CC1 [Compound 1425]
EC50 [1]: 0.01 to 10 nM

CC(C)(CNC(=O)C(=O)Nc1cn[nH]c1)CNC(=O)c1ccc(Nc2nc(NC3(c4ccc(Cl)cc4)CC3)nc(OCC(F)(F)F)n2)cc1 [Compound 3033]
EC50 [3]: 0.01 to 10 nM

COC(=O)[C@H](CNC(=O)C(=O)N[C@H]1C[C@H](C)CC[C@H]1C(C)C)NC(=O)c1ccc(Nc2nc(NC3(c4ccc(Cl)cc4)CC3)nc(OCC(F)(F)F)n2)cc1 [Compound 1067]
EC50 [1]: 0.01 to 10 nM

COC(=O)[C@H](CCNC(=O)C(=O)NC1CC(C)CC(C)(C)C1)NC(=O)c1ccc(Nc2nc(NC3(c4ccc(Cl)cc4)CC3)nc(OCC(F)(F)F)n2)cc1 (stereo partly drawn) [Compound 1107]
EC50 [4]: 0.46 nM
EC50 [1]: 0.01 to 10 nM

CC(F)Oc1ccc(NC(=O)C(=O)NC[C@H](NC(=O)c2ccc(Nc3nc(NC4(c5ccc(Cl)cc5)CC4)nc(OCC(F)(F)F)n3)cc2)C(=O)O)cc1 (stereo partly drawn) [Compound 3298]
EC50 [3]: 0.01 to 10 nM

COC(=O)[C@H](CNC(=O)C(=O)NC(C1CC1)C1CC1)NC(=O)c1ccc(Nc2nc(NC3(c4ccc(Cl)cc4)CC3)nc(OCC(F)(F)F)n2)cc1 [Compound 1055]
EC50 [4]: 2.41 nM
EC50 [1]: 0.01 to 10 nM
